Data published in patent publication US10780092B2, “Fused pyrazine derivatives useful as soluble guanylate cyclase stimulators” (Merck Sharp & Dohme Corp., priority 2016, dated 2020).

Columns and labels:
[1] = target: sGC α1/β1 heterodimer (Homo sapiens (Human), UniProt Q02108+Q02153); assay: Cell-based sGC functional assay (CASA assay), cGMP by HTRF; settings: CHO-K1/sGC cells; for Emax: CHO-K1, cGMP production as percentage of maximum of compound A (set to 100%), read-out: % Activation; for EC50: inflection point of cGMP production, 4P fit, read-out: IP
Excerpt: Cell-Based sGC Functional Assay (Cyclic GMP Assay for sGC Activator: CASA Assay)
Soluble guanylate cyclase (sGC) is a heme-containing enzyme that converts GTP to secondary messenger cGMP. Increases in cGMP levels affect several physiological processes including vasorelaxation through multiple downstream pathways. […] Heme-dependent activators (HDAs) preferentially target sGC containing a ferrous heme group. To determine the effect of sGC activators on enzyme activity, the CASA assay was developed to monitor the generation of cGMP in a cell line that stably expresses the heterodimeric sGC protein.
A CHO-K1 cell line stably expressing the sGC α1/β1 heterodimer was generated using a standard transfection protocol. The cDNA's encoding human sGC α1 and β1 were cloned in pIRES hyg and pIRES neo respectively using standard molecular biology techniques. The plasmids pIRES hyg and pIRES neo plasmids were obtained from Clontech. CHO-K1 cells were transfected with plasmids pIREShyg-hsGCα1 and pIRESneo-hsGCβ1 simultaneously using FUGENE reagent. Clones that stably express both subunits were selected with hygromycin and neomycin for ˜2 weeks. The clone chosen for the assay was designated CHO-K1/sGC. CHO-K1/sGC cells were maintained in F-K12 medium containing 10% heat-inactivated Fetal Bovine Serum (FBS), 100 μg/mL penicillin/streptomycin, 0.5 mg/mL hygromycin and 0.25 mg/mL G418. The cells were then cryopreserved in liquid nitrogen. On the day of the assay, the cells were thawed and resuspended in EBSS Assay Buffer (Sigma, E3024) supplemented with 5 mM MgCl2, 10 mM HEPES (4-(2-hydroxyethyl)piperazine-1-ethanesulfonic acid) and 0.05% BSA (bovine serum albumin) and cell density was then adjusted to 2.25×10^5/mL with EAB. IBMX (3-isobutyl-1-methylxanthin, 0.5 mM) was added to inhibit degradation of cGMP. Compounds were diluted from DMSO stock solutions and added to the assay at a final DMSO concentration of 2.5%. Cells were pre-incubated in the presence and absence of 1 μM of Diethylenetriamine/nitric oxide adduct (DETA-NO; Sigma, 17018) for 30 min at 25° C. Compounds were subsequently added and incubated for 1 hr at 37° C. At the end of the incubation period, the reaction was terminated and the cells were lysed with the detection reagents from Cisbio Kits. The level of intracellular cGMP was determined using an HTRF-based assay kit (CisBio, 62GM2PEC), which detects the displacement of a fluorescence labeled cGMP from its specific antibody. The cGMP produced by test compounds was directly compared to the maximum cGMP production (this value was set to equal 100% activation) of the published sGC compound A (Example 1 in WO 2010/065275, published Jun. 10, 2010).
The test compounds' activities were then expressed as a percentage of compound A, the standard in every experiment. This percent activation was calculated either in the presence or absence of DETA-NO which was then plotted. Inflection points (IP) and maximum fold induction was derived using Abase analysis software for 4P fit.

[2] = target: human recombinant sGC enzyme (Homo sapiens (Human), UniProt Q02108+Q02153); assay: SEC competition binding assay with [3H] Compound B radioligand; settings: displacement of 1.6 nM [3H] Compound B, 24 h at 37° C.
Experimental: The binding potencies of sGC compounds to the human recombinant sGC enzyme were determined in a Size Exclusion Chromatography (SEC) competition binding assay using [^3H] Compound B as the radioligand. [^3H] Compound B was prepared using a standardardized tritium exchange procedure. The parent (non-labeled) molecule was first iodinated then a Pd-catalyzed iodine to tritium exchange provided the labeled compound.
Method: The binding buffer was composed of 50 mM triethanolamine pH 7.4, 3 mM MgCl2, 0.025% BSA, 2 mM dithiothreitol (DTT), 300 μM DETA/NO and 400 μM GTP. Assays were conducted in 96-well plates in a total volume of 200 μL. Recombinant human sGC protein (40 ng) was incubated with 1.6 nM [^3H] Compound B for 24 h at 37° C. in the presence and absence of various concentrations of sGC testing compounds delivered as DMSO solutions to give a total of 1% organic solvent content. Non-specific binding was defined by competition with 1 μM of Compound B. After the incubation period, the binding mixtures were loaded onto the gel-filtration plate (ThermoFischer Cat. No. 89808) pre-equilibrated with binding buffer and spun at 1000×g for 3 min at 4° C. on a Bench top centrifuge. The collected eluates in White Frame Clear Well Isoplates (Perkin Elmer Cat #6005040) received 100 μl of UltimaGold scintillation cocktail. The sealed plates were shaken vigorously and span, and counted after 6 hs with a Wallac Microbeta TriLux 1450 LSC & Luminescence Counter (Perkin Elmer). Data from competition experiments were analyzed to determine Ki values using one site—fit Ki equation.

Row | SMILES | Emax [1] [%] | EC50 [1] [nM] | Ki [2] [nM] | % Activation ([1]; cGMP production as percentage of maximum of compound A (set to 100%)) [%]
1 | CC1(c2ccc(Cl)c(O)c2)C(=O)Nc2nc(-c3cn4ccnc4c(CCC4CCCCC4)n3)nc(N)c21 (stereo not drawn) [Example 63-A, 4-Amino-5-(4-chloro-3-hydroxyphenyl)-2-(8-(2-cyclohexylethyl)imidazo[1,2-a]pyrazin-6-yl)-5-methyl-5,7-dihydro-6H-pyrrolo[2,3-d]pyrimidin-6-one] | 121 | 600 | 2.2 | 
2 | CC1(c2ccc(Cl)c(O)c2)C(=O)Nc2nc(-c3cn4ncnc4c(CCC(F)(F)C(F)(F)F)n3)nc(NCCC(F)(F)F)c21 (stereo not drawn) [Example 138-A, 5-(4-Chloro-3-hydroxy-phenyl)-5-methyl-2-(8-(3,3,4,4,4-pentafluoro-butyl)-[1,2,4]triazolo-[1,5-a]pyrazin-6-yl)-4-((3,3,3-trifluoropropyl)-amino)-5,7-dihydro-6H-pyrrolo[2,3-d]pyrimidin-6-one] | 65 | 169 | 4.62 | 
3 | CC1(c2ccc(C(F)(F)F)c(O)c2)C(=O)Nc2nc(-c3cn4ccnc4c(Cc4cccc(F)c4)n3)nc(N)c21 (stereo not drawn) [Example 17-B, 4-Amino-2-{8-[(3-fluorophenyl)methyl]imidazo[1,2-a]pyrazin-6-yl}-5-(3-hydroxy-4-(trifluoromethyl)phenyl)-5-methyl-5,7-dihydro-6H-pyrrolo[2,3-d]pyrimidin-6-one] | 117 | 482 | 0.163 | 
4 | CC1CCC(Cc2nc(-c3nc(N)c4c(n3)NC(=O)C4(C)c3ccc(O)c(Cl)c3)cn3ccnc23)CC1 (single isomer, unassigned) [Example 120-BA, 4-Amino-5-(3-chloro-4-hydroxyphenyl)-5-methyl-2-{8-[(4-methyl-cyclohexyl)methyl]-imidazo[1,2-a]pyrazin-6-yl}-5,7-dihydro-6H-pyrrolo[2,3-d]pyrimidin-6-one] | 133 | 85 | 10.9 | 
5 | CC1(c2cc(O)c(C#N)c(Cl)c2)C(=O)Nc2nc(-c3cn4ncnc4c(Cc4ccccc4F)n3)nc(N)c21 (stereo not drawn) [Example 149-A, 4-(4-amino-2-{8-(2-fluorobenzyl)-[1,2,4]-triazolo[1,5-a]pyrazin-6-yl}-5-methyl-6-oxo-6,7-dihydro-5H-pyrrolo-[2,3-d]pyrimidin-5-yl)-2-chloro-6-hydroxy-benzonitrile] | 54 | 583 | 0.509 | 
6 | CC(C)CCc1nc(-c2nc(N)c3c(n2)NC(=O)C3(C)c2ccc(O)c(F)c2)cn2ccnc12 (stereo not drawn) [Example 54-B, 4-Amino-5-(3-fluoro-4-hydroxyphenyl)-2-(8-isopentylimidazo[1,2-a]pyrazin-6-yl)-5-methyl-5,7-dihydro-6H-pyrrolo[2,3-d]pyrimidin-6-one] | 72 | 42 | 1.08 | 
7 | CC1(c2cccc(O)c2)C(=O)Nc2nc(-c3cn4ccnc4c(CCC(F)(F)C(F)(F)F)n3)nc(N)c21 (stereo not drawn) [Example 79-B, 4-Amino-5-(3-hydroxyphenyl)-5-methyl-2-(8-(3,3,4,4,4-pentafluorobutyl)imidazo[1,2-a]pyrazin-6-yl)-5,7-dihydro-6H-pyrrolo[2,3-d]pyrimidin-6-one] | 108 | 96 | 9.41 | 
8 | CC1(c2ccc(Cl)c(O)c2)C(=O)Nc2nc(-c3cn4ccnc4c(Cc4cc(F)cc(F)c4)n3)nc(N)c21 (stereo not drawn) [Example 36-A, 4-Amino-5-(4-chloro-3-hydroxyphenyl)-2-{8-[(3,5-difluorophenyl)methyl]imidazo[1,2-a]pyrazin-6-yl}-5-methyl-5,7-dihydro-6H-pyrrolo[2,3-d]pyrimidin-6-one] | 116 | 381 | 0.393 | 
9 | CC1(c2cccc(O)c2)C(=O)Nc2nc(-c3cn4ccnc4c(Cc4cc(F)cc(F)c4)n3)nc(N)c21 (stereo not drawn) [Example 48-B, 4-Amino-2-{8-[(3,5-difluorophenyl)methyl]imidazo[1,2-a]pyrazin-6-yl}-5-(3-hydroxyphenyl)-5-methyl-5,7-dihydro-6H-pyrrolo[2,3-d]pyrimidin-6-one] | 114 | 198 | 0.723 | 
10 | CC1CCC(Cc2nc(-c3nc(N)c4c(n3)NC(=O)C4(C)c3ccc(Cl)c(O)c3)cn3ccnc23)CC1 (stereo not drawn) [Example 108-AB, 4-Amino-5-(4-chloro-3-hydroxyphenyl)-5-methyl-2-{8-[(4-methylcyclohexyl)methyl]imidazo[1,2-a]pyrazin-6-yl}-5,7-dihydro-6H-pyrrolo[2,3-d]pyrimidin-6-one] |  | 210 | 0.524 | 127
11 | CC1(c2ccc(Cl)c(O)c2)C(=O)Nc2nc(-c3cn4ncnc4c(CCCC(F)(F)F)n3)nc(N)c21 (stereo not drawn) [Example 87-A, 4-Amino-5-(4-chloro-3-hydroxyphenyl)-5-methyl-2-(8-(4,4,4-trifluorobutyl)-[1,2,4]triazolo[1,5-a]pyrazin-6-yl)-5,7-dihydro-6H-pyrrolo[2,3-d]pyrimidin-6-one] | 111 | 935 | 2.8 | 
12 | CC1(c2ccc(O)c(F)c2)C(=O)Nc2nc(-c3cn4ccnc4c(CCC(F)(F)C(F)(F)F)n3)nc(N3CC(O)(C(F)(F)F)C3)c21 (stereo not drawn) [Example 130-A, 5-(3-Fluoro-4-hydroxyphenyl)-4-(3-hydroxy-3-(trifluoromethyl)azetidin-1-yl)-5-methyl-2-(8-(3,3,4,4,4-pentafluorobutyl)imidazo[1,2-a]pyrazin-6-yl)-5,7-dihydro-6H-pyrrolo[2,3-d]pyrimidin-6-one] | 81 | 1920 | 7.15 | 
13 | CC1(c2ccc(Cl)c(O)c2)C(=O)Nc2nc(-c3cn4ncnc4c(CCC(F)(F)C(F)(F)F)n3)nc(NCCCC(F)(F)F)c21 (stereo not drawn) [Example 139-A, 5-(4-Chloro-3-hydroxy-phenyl)-5-methyl-2-(8-(3,3,4,4,4-pentafluoro-butyl)-[1,2,4]triazolo-[1,5-a]pyrazin-6-yl)-4-((4,4,4-trifluorobutyl)-amino)-5,7-dihydro-6H-pyrrolo[2,3-d]pyrimidin-6-one] | 68 | 349 | 3.54 | 
14 | CC1(c2cc(O)c(C#N)c(F)c2)C(=O)Nc2nc(-c3cn4ccnc4c(Cc4cc(F)cc(F)c4F)n3)nc(N)c21 (stereo not drawn) [Example 102-B, 4-(4-Amino-5-methyl-6-oxo-2-{8-[(2,3,5-trifluorophenyl)methyl]imidazo[1,2-a]pyrazin-6-yl}-6,7-dihydro-5H-pyrro1o[2,3-d]pyrimidin-5-yl)-2-fluoro-6-hydroxybenzonitrile] | 73 | 382 | 0.118 | 
